The NIST ThermoML archive (doi:10.1016/j.tca.2016.03.033)

Experiments:
[1] = xn = mol fraction of the nth substance listed; conditions: Ring tensiometer
[2] = Ring tensiometer

[F][La]([F])[F] [lanthanum trifluoride] + [F-].[Li+]
surface tension liquid-gas [mN/m], [1]
Conditions | 1223 K | 1248 K | 1273 K | 1298 K | 1323 K | 1348 K | 1373 K | 1398 K | 1423 K
x1 = 0.2 | 257.3 | 254.9 | 251.8 | 249.3 | 247 | 244.4 | 242.1 | 239.2 | 236.9
x1 = 0.25 | 264.7 | 262.1 | 259 | 256.3 | 253.6 | 251.2 | 248.8 | 246.7 | 243.9
x1 = 0.3 | 272.2 | 269.5 | 267.2 | 264.9 | 262.1 | 258.9 | 256.5 | 253.8 | 251.3
x1 = 0.35 | – | – | – | 274.2 | 271.4 | 268.3 | 265 | 262.2 | 259.8
x1 = 0.4 | – | – | – | – | 281.7 | 279.1 | 276.5 | 274 | 270.9

[F][Nd]([F])[F] [neodymium fluoride] + [F-].[Li+]
surface tension liquid-gas [mN/m], [1]
Conditions | 1223 K | 1248 K | 1273 K | 1298 K | 1323 K | 1348 K | 1373 K | 1398 K | 1423 K
x1 = 0.2 | 249.1 | 247.2 | 244.3 | 241.9 | 239.6 | 237.3 | 235.2 | 232.9 | 230.8
x1 = 0.25 | 258.3 | 255.7 | 253.5 | 250.9 | 249.3 | 246.3 | 243.6 | 240.4 | 239.1
x1 = 0.3 | 267.8 | 264.9 | 262.7 | 259.5 | 257 | 254.5 | 251.6 | 249.3 | 246.9
x1 = 0.35 | 279.2 | 276.8 | 273.3 | 270.4 | 268.1 | 266 | 262.7 | 260.4 | 257.3
x1 = 0.4 | – | – | 284.1 | 280.7 | 279.6 | 276.8 | 274.1 | 272.1 | 268.2

[Cl-].[K+] [potassium chloride]
Conditions | surface tension liquid-gas [mN/m]
[2], 1230 K | 86.14

[F-].[Na+] [sodium fluoride]
Conditions | surface tension liquid-gas [mN/m]
[2], 1325 K | 187.14
